Assay results published in PubChem BioAssay (NCI).
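Values below derive from 48-hour exposures of cells grown in 96-well plates, with endpoints linearly interpolated between the two concentrations bracketing the appropriate inhibition level. GI50 = concentration required for 50% inhibition of growth. At the TGI there is no net growth.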

Experiments:
Test in all cases: inhibition of tumour cell growth, NCI panel, 48 h
[1] = tested on: MALME-3M melanoma
[2] = tested on: IGROV1 ovarian
[3] = tested on: NCI-H23 lung
[4] = tested on: SF-295 CNS
[5] = tested on: SK-OV-3 ovarian
[6] = tested on: UACC-62 melanoma
[7] = tested on: SK-MEL-2 melanoma
[8] = tested on: OVCAR-8 ovarian
[9] = tested on: U251 CNS
[10] = tested on: MDA-MB-435
[11] = tested on: MDA-MB-231 breast
[12] = tested on: HCC-2998 colon
[13] = tested on: SF-268 CNS
[14] = tested on: M14 melanoma
[15] = tested on: SNB-75 CNS
[16] = tested on: NCI-H226 lung
[17] = tested on: BT-549 breast
[18] = tested on: KM12 colon
[19] = tested on: ACHN renal
[20] = tested on: A498 renal
[21] = tested on: UACC-257 melanoma
[22] = tested on: TK-10 renal
[23] = tested on: RXF 393 renal
[24] = tested on: EKVX NSCLC
[25] = tested on: HL-60(TB) leukemia
[26] = tested on: MCF7 breast
[27] = tested on: SW-620 colon
[28] = tested on: A549 NSCLC
[29] = tested on: T-47D breast
[30] = tested on: SF-539 CNS
[31] = tested on: RPMI-8226 leukemia
[32] = tested on: CCRF-CEM leukemia
[33] = tested on: OVCAR-5 ovarian
[34] = tested on: OVCAR-4 ovarian
[35] = tested on: HCT-15 colon
[36] = tested on: COLO 205 colon
[37] = tested on: NCI-H522 lung
[38] = tested on: 786-0 renal
[39] = tested on: OVCAR-3 ovarian
[40] = tested on: MDA-MB-468 breast
[41] = tested on: SNB-19 CNS
[42] = tested on: HS 578T breast
[43] = tested on: HCT-116 colon
[44] = tested on: PC-3 prostate
[45] = tested on: K-562 leukemia
[46] = tested on: NCI/ADR-RES ovarian
[47] = tested on: DU-145 prostate
[48] = tested on: SN12C renal
[49] = tested on: HOP-92 NSCLC
[50] = tested on: LOX IMVI melanoma
[51] = tested on: SK-MEL-5 melanoma
[52] = tested on: HOP-62 NSCLC
[53] = tested on: NCI-H460 lung

**Q.** What does the source list for `ClC(Cn1ncc2c(Nc3cccc(Br)c3)nc(SCCN3CCOCC3)nc21)c1ccc(Br)cc1` (stereo unspecified)?
**A.** GI50 [1]: 1.81 µM; TGI [1]: 3.53 µM; GI50 [2]: 8 µM; TGI [2]: > 100 µM; GI50 [3]: 3.46 µM; TGI [3]: 18.6 µM; GI50 [4]: 1.78 µM; TGI [4]: 3.57 µM; GI50 [5]: 6.46 µM; TGI [5]: > 100 µM; GI50 [6]: 2.23 µM; TGI [6]: 4.75 µM; GI50 [7]: 4.62 µM; TGI [7]: 24.5 µM; GI50 [8]: 6.5 µM; TGI [8]: > 100 µM; GI50 [9]: 3.34 µM; TGI [9]: 41.3 µM; GI50 [10]: 3.89 µM; TGI [10]: 21.5 µM; GI50 [11]: 2.25 µM; TGI [11]: 4.66 µM; GI50 [12]: 3.8 µM; TGI [12]: 60 µM; GI50 [13]: 6.94 µM; TGI [13]: > 100 µM; GI50 [14]: 2.5 µM; TGI [14]: 8.72 µM; GI50 [15]: 2.57 µM; TGI [15]: 24.3 µM; GI50 [16]: 9.32 µM; TGI [16]: 71.6 µM; GI50 [17]: 11.7 µM; TGI [17]: 27.9 µM; GI50 [18]: 2.72 µM; TGI [18]: 7.36 µM; GI50 [19]: 4.38 µM; TGI [19]: > 100 µM; GI50 [20]: 6.37 µM; TGI [20]: 35.2 µM; GI50 [21]: 2.82 µM; TGI [21]: 9.84 µM; GI50 [22]: 13.6 µM; TGI [22]: > 100 µM; GI50 [23]: 1.69 µM; TGI [23]: 4.49 µM; GI50 [24]: 5.01 µM; TGI [24]: > 100 µM; GI50 [25]: 3.03 µM; TGI [25]: > 100 µM; GI50 [26]: 2.77 µM; TGI [26]: 24.6 µM; GI50 [27]: 2.76 µM; TGI [27]: 12.6 µM; GI50 [28]: 4.93 µM; TGI [28]: > 100 µM; GI50 [29]: 3.47 µM; TGI [29]: > 100 µM; GI50 [30]: 1.79 µM; TGI [30]: 3.48 µM; GI50 [31]: 2.03 µM; TGI [31]: 4.59 µM; GI50 [32]: 2.17 µM; TGI [32]: 10.1 µM; GI50 [33]: 5.24 µM; TGI [33]: 30.3 µM; GI50 [34]: 6.42 µM; TGI [34]: > 100 µM; GI50 [35]: 1.65 µM; TGI [35]: 3.8 µM; GI50 [36]: 1.98 µM; TGI [36]: 4.48 µM; GI50 [37]: 2.87 µM; TGI [37]: 9.33 µM; GI50 [38]: 1.76 µM; TGI [38]: 3.35 µM; GI50 [39]: 10.3 µM; TGI [39]: 60 µM; GI50 [40]: 2.52 µM; TGI [40]: 6.89 µM; GI50 [41]: 5.14 µM; TGI [41]: > 100 µM; GI50 [42]: 2.44 µM; TGI [42]: 7.88 µM; GI50 [43]: 3.09 µM; TGI [43]: > 100 µM; GI50 [44]: 3.77 µM; TGI [44]: > 100 µM; GI50 [45]: 2.84 µM; TGI [45]: 26.2 µM; GI50 [46]: 3.89 µM; TGI [46]: 97.5 µM; GI50 [47]: 15.1 µM; TGI [47]: > 100 µM; GI50 [48]: 6.47 µM; TGI [48]: > 100 µM; GI50 [49]: 3.5 µM; TGI [49]: 23.9 µM; GI50 [50]: 1.74 µM; TGI [50]: 3.24 µM; GI50 [51]: 2.07 µM; TGI [51]: 4.47 µM; GI50 [52]: 3.71 µM; TGI [52]: 22.4 µM; GI50 [53]: 3.55 µM; TGI [53]: > 100 µM
